Laboratory results as given in patent US20120045835A1, “PORTABLE DEVICE BASED ON IMMOBILIZED CELLS FOR THE DETECTION OF ANALYTES” (priority 2009, published 2012).

Columns and labels:
[1] = tested on: recombinant E. coli cells specific for Cu^2+; assay: Calibration curve for copper with immobilized bioluminescent biosensor and control strain; format: cell-based; conditions: E. coli immobilized in the matrix; signal corrected with control strain constitutively expressing firefly luciferase
Description: For each calibration curve a limit of detection is calculated (LOD) according to the standard deviation on the blank signal measured with the calibration curve. It is provided by the analyte concentration corresponding to the signal XLOD:
A calibration curve for copper was performed by employing recombinant E. coli cells specific for Cu^2+ and a control strain that constitutively express firefly luciferase. The use of a control strain allows to correct the analytical signal with a detection limit of 0.05 ppm for Cu^2+.
Cells are grown in selective liquid medium at 37° C. (e.g., Luria Bertani Broth with antibiotic for plasmid maintenance) for each strain up to an optical density at 600 nm in the range 0.6-0.8.
Then, a buffered solution at pH 6.5-7.5 is added to each cell suspension containing nutrients and is mixed 1:2-1:4 with the immobilization matrix.
A solution containing 1% atelocollagen in PBS (NaCl 137 mM, KCl 2.7 mM, NaH2PO4 1.4 mM, Na2HPO4 4.3 mM) at pH 7.4 with decorin final concentration 15% w/w atelocollagen.
Polyvinylpyrrolidone (PVP) and modified polysiloxanes (e.g., polydimethylsiloxane, tetraethyl-orthosilicate) are added to a final concentration of 1% and 0.4%, respectively.

[2] = tested on: yeast cells specific to estrogens; assay: Calibration curves for 17-β estradiol with immobilized yeast biosensor; format: cell-based; conditions: yeast immobilized in matrix (2% atelocollagen, 0.5% polydimethylsiloxane); similar to liquid cultures
Excerpt: For example, the device employs S. cerevisiae cells specific for compounds with estrogenic/androgenic activity: for this aim an integrative vector with a regulatory element containing two or more tandem copies of the Androgen or Estrogen Responsive Element (ARE/ERE) upstream of the gene encoding for the bioluminescent reporter protein (e.g., luciferase from P. pyralis) and a vector encoding for human androgen or estrogen receptor were introduced in S. cerevisiae cells (A new highly specific and robust yeast androgen bioassay for the detection of agonists and antagonists Toine F. H. Boyce, Richard J. R. Helsdingen, Astrid R. M. Hamers, Majorie B. M. van Duursen, Michel W. F. Nielen, and Ron L. A. P. Hoogenboom). In this work, GFP is used as fluorescent reporter gene that also finds application in the present invention.
Analogously to Example 3, but with slight modifications to single components of the immobilization matrix (2% atelocollagen and 0.5% polydimethylsiloxane), a biosensor based on yeast cells specific to estrogens was immobilized.
Recombinant cells are grown in SC liquid culture (synthetic complete, selective for plasmid auxotrophies) at 30° C. up to an optical density at 600 nm of 0.6. Then, cells are immobilized as previously described.

| SMILES | detection limit [1] | limit of detection [2] |
| --- | --- | --- |
| [Cu+2] [Cu^2+] | 0.05 ppm | – |
| C[C@]12CC[C@@H]3c4ccc(O)cc4CC[C@H]3[C@@H]1CC[C@@H]2O [17-β estradiol] | – | 10 pM |
